{"source": "paper PMC7250496", "about": "(Journal of medicinal chemistry, 2020)", "origin": "cited, not measured here", "key": {"mMC3R": {"target": "mMC3R (Mus musculus, UniProt P33033)", "sequence (P33033 whole entry)": "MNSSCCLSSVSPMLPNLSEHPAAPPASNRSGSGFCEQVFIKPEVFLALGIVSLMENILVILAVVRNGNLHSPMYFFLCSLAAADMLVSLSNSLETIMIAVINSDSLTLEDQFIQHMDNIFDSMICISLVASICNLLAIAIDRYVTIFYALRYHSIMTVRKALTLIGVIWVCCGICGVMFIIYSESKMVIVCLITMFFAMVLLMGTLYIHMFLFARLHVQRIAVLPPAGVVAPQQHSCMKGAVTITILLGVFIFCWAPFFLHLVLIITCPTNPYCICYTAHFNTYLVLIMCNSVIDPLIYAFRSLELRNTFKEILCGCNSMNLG", "settings": "previously reported ref 80"}, "mMC5R": {"target": "mMC5R (Mus musculus, UniProt P41149)", "sequence (P41149 whole entry)": "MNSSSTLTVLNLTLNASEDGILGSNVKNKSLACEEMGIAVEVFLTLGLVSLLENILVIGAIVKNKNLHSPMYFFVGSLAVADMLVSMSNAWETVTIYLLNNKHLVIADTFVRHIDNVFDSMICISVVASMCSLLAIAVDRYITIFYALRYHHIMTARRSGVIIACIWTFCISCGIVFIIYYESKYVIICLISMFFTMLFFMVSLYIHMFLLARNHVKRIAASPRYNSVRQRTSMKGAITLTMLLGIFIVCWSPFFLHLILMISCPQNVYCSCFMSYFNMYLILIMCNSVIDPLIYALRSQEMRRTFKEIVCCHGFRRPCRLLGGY", "settings": "previously reported ref 80"}}}
{"smiles": "C[C@@H]1NC(=O)[C@H](CN)NC(=O)[C@H](Cc2ccccc2)NC(=O)[C@H](Cc2ccccc2)NC(=O)[C@H](CCCNC(=N)N)NC(=O)[C@@H]2CCCN2C(=O)[C@H]2CCCN2C(=O)[C@H](Cc2ccccc2)NC1=O", "note": "[Compound 2, c[Pro-Arg-Phe-Phe-Dap-Ala-Phe-DPro]]", "values": [{"measurement": "mMC3R pA2", "setting": "mMC3R; antagonist, Schild analysis, agonist NDP-MSH", "value": "6.5 ± 0.09"}, {"measurement": "EC50", "setting": "mMC3R; read-out: mMC3R EC50, agonist", "value": "> 100", "unit": "µM"}, {"measurement": "mMC5R Inverse Agonist, percent decrease from basal", "setting": "mMC5R", "value": "Inverse Agonist −15%"}]}
